This passage reports IC50 results from patent US20200315981A1, “COMPOSITIONS AND METHODS FOR NANOPARTICLE-BASED DRUG DELIVERY AND IMAGING” (Memorial Sloan Kettering Cancer Center, priority 2015, published 2020).

Read-outs that look alike come from different tables or passages of the source.

In this experiment the test system is human prostatic adenocarcinoma cell line PC3. Put plainly: Cell viability studies, PC3. The experiment is classed as cell-based. To be noted: PC-3, PC3 cells. The source says:
Subsequently, the dextran nanophores therapeutic potential in vitro and in vivo was investigated. […] This drug combination was selected, because it was previously reported that inhibition of the androgen receptor pathway leads to overactivation of the PI3K cascade, while suppression of PI3K upregulates androgen-receptor-mediated signaling. […] Doxorubicin and the MEK inhibitor AZD6244 (Selumetinib®) was co-loaded into dextran nanophores, since MEK is a downstream target of EGFR.

For `COc1cccc2c1C(=O)c1c(O)c3c(c(O)c1C2=O)C[C@@](O)(C(=O)CO)C[C@@H]3O[C@H]1C[C@H](N)[C@H](O)[C@H](C)O1` [doxorubicin], the IC50 reads like this: (FIG. 6, read-out: IC50) 6.5 µM; (FIG. 9D, read-out: doxorubicin concentration causing 50% reduction in the viability of PC3 cells) 8 µM.
